Residue numbers refer to the chain shown, from its start. Calls of active or inactive are those of the source. The calls are words filed in the database; no cut-off is given here.
Legend:
[1] = system: Salinispora tropica CNB-440; test: Activity at Salinispora tropica CNB-440 wild type recombinant SalL expressed in Escherichia coli BL21(DE3) after 30 mins by HPLC analysis
[2] = system: Salinispora tropica CNB-440; test: Ratio of Kcat to Km for Salinispora tropica CNB-440 wild type recombinant SalL expressed in Escherichia coli BL21(DE3)
[3] = system: Salinispora tropica CNB-440; test: Activity at Salinispora tropica CNB-440 wild type recombinant SalL expressed in Escherichia coli BL21(DE3) after 30 mins by HPLC analysis relative to S-Adenosyl methionine
[4] = system: T1, Adenosyl-chloride synthase (Salinispora tropica (strain ATCC BAA-916 / DSM 44818 / CNB-440)), A4X3Q0 [W129F]; test: Activity at Salinispora tropica CNB-440 recombinant SalL W129F mutant expressed in Escherichia coli BL21(DE3) after 30 mins by HPLC analysis relative to S-Adenosyl methionine
T1 sequence (whole entry): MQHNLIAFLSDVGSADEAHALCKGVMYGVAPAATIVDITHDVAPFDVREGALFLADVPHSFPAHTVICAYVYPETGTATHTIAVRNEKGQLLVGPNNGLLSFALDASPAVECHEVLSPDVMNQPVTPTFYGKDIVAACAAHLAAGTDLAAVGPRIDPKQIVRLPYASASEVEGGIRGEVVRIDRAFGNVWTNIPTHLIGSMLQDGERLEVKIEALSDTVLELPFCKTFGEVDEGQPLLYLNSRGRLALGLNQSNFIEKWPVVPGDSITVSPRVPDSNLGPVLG

[5] = system: T2, Adenosyl-chloride synthase (Salinispora tropica (strain ATCC BAA-916 / DSM 44818 / CNB-440)), A4X3Q0 [Y70T]; test: Activity at Salinispora tropica CNB-440 recombinant SalL Y70T mutant expressed in Escherichia coli BL21(DE3) after 30 mins by HPLC analysis relative to S-Adenosyl methionine
T2 sequence (whole entry): T1 sequence (whole entry) with Y70T, F129W

[6] = system: T3, Adenosyl-chloride synthase (Salinispora tropica (strain ATCC BAA-916 / DSM 44818 / CNB-440)), A4X3Q0 [Y70T,G131S]; test: Activity at Salinispora tropica CNB-440 recombinant SalL Y70T/G131S mutant expressed in Escherichia coli BL21(DE3) after 30 mins by HPLC analysis relative to S-Adenosyl methionine
T3 sequence (whole entry): T1 sequence (whole entry) with Y70T, F129W, G131S

[7] = system: Salinispora tropica CNB-440; test: Activity at Salinispora tropica CNB-440 wild type recombinant SalL expressed in Escherichia coli BL21(DE3) assessed as formation of S-Adenosyl methionine after 30 mins by HPLC analysis
[8] = system: Salinispora tropica CNB-440; test: Effect on Salinispora tropica CNB-440 wild type recombinant SalL expressed in Escherichia coli BL21(DE3)-mediated S-Adenosyl methionine formation after 30 mins by HPLC analysis
[9] = system: Salinispora tropica CNB-440; test: Ratio of Kcat to Km for Salinispora tropica CNB-440 wild type recombinant SalL expressed in Escherichia coli BL21(DE3) for formation of S-Adenosyl methionine

Structure (SMILES)	Km [1]	kcat [1]	kcat/Km [2]	Activity [3]	Activity [4]	Activity [5]	Activity [6]	Activity [7]	Km [8]	kcat [8]	kcat/Km [9]
C[S+](CC[C@H](N)C(=O)[O-])C[C@H]1O[C@@H](n2cnc3c(N)ncnc32)[C@H](O)[C@@H]1O (some centres not stated)	1 µM	0.015 s⁻¹	15000 M⁻¹ s⁻¹								
Nc1ncnc2c1ncn2[C@@H]1O[C@H](CCl)[C@@H](O)[C@H]1O				100%	11%	1.1%	2.5%	1300%	0.2 µM	0.2 s⁻¹	1e+06 M⁻¹ s⁻¹
Nc1ncnc2c1ncn2[C@@H]1O[C@H](CBr)[C@@H](O)[C@H]1O								Active	Active	Active	Active
CSCC[C@H](N)C(=O)O								1300%	2600 µM	0.2 s⁻¹	76.7 M⁻¹ s⁻¹
Nc1ncnc2c1ncn2[C@@H]1O[C@H](CI)[C@@H](O)[C@H]1O				100%	12%	1.4%	0.8%	5560%	4.6 µM	0.833 s⁻¹	181000 M⁻¹ s⁻¹
